Experimental data from patent US12662489B2 (Sitryx Therapeutics Limited, priority 2023, dated 2026).

Assays:
CD4+ T-cells = conditions: cited from earlier work
[1] = system: murine KLH contact sensitization model; conditions: cited from earlier work
[2] = molecular target: T1, human α4β2 neuronal nicotinic receptor (Homo sapiens, UniProt P17787+P43681); experiment: α4β2 neuronal nicotinic receptor assay (agonist radioligand, [3H]cytisine); assay type: binding; conditions: transfected SH-SY5Y cell membranes, 0.6 nM [3H]cytisine, band
T1 construct: host or cells: SH-SY5Y cells (membrane homogenates)
Description: Cell membrane homogenates (30 μg protein) were incubated for 120 min at 4° C. with 0.6 nM [3H]cytisine in the absence or presence of the test compound in a buffer containing 50 mM Tris-HCl (pH 7.4), 120 mM NaCl, 5 mM KCl, 2.5 mM CaCl2 and 1 mM MgCl2. Nonspecific binding was determined in the presence of 10 μM nicotine bitartrate. Following incubation, the samples were filtered rapidly under vacuum through glass fiber filters (GF/B, Packard) presoaked with 0.3% PEI and rinsed several times with ice-cold 50 mM Tris-HCl using a 96-sample cell harvester (Unifilter, Packard).
The filters were dried then counted for radioactivity in a scintillation counter (Topcount, Packard) using a scintillation cocktail (Microscint 0, Packard). The results were expressed as a percent inhibition of the control radioligand specific binding. The standard reference compound was nicotine bitartrate.
A number of example compounds of formula (I) were tested to evaluate their affinity for the human α4β2 neuronal nicotinic receptor expressed in transfected SH-SY5Y cells, determined in a radioligand binding assay.

[3] = molecular target: T2, MTHFD2 recombinant human enzyme (Homo sapiens, UniProt P13995); experiment: MTHFD2 inhibition assay (NAD(P)H-Glo luminescence); conditions: for MTHFD1/MTHFD2 IC50 ratio: selectivity of MTHFD2 inhibition over MTHFD1, band
T2 sequence (P13995 36-350): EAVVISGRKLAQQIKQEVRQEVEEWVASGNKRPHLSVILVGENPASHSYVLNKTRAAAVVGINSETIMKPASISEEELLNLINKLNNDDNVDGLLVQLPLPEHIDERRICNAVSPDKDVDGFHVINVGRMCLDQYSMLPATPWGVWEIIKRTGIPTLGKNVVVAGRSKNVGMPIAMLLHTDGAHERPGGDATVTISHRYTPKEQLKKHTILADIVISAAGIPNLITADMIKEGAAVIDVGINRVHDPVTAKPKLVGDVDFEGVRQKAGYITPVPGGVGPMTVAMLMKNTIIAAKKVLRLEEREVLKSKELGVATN

human CD4+ T cells = experiment: Human CD4+ T-cell proliferation assay (CFSE, CD3/28 beads); conditions: read-out: Proliferation IC50
Description: Cells were incubated at room temperature for 8 minutes in a rotator in the dark. 13 mL cRPMI was added to each tube and cells were centrifuged at 500×g for 4 minutes at room temperature before pellets were resuspended in 10 mL cRPMI. Cells were counted using the Auto2000 Cellometer and AO/PI viability stain and concentration adjusted to 0.6×10^6 cells/mL in cRPMI. […] Control wells were included for flow cytometry and edge wells were filled with 200 μL 1×dPBS. Cells were incubated at 37° C., 5% CO2 for 2 days before compound treatment. […] Cells were incubated at 37° C., 5% CO2 for a further 2 days prior to flow staining and supernatant harvest.
On the final day plates were centrifuged at 500×g for 4 minutes at room temperature. 125 μL of supernatants were transferred to a V bottom 96 well polystyrene plate and stored at −80° C. Plates were gently vortexed to disrupt the cell pellets before 125 μL 1×PBS was added to each well. Plates were centrifuged at 500×g for 4 minutes at room temperature and supernatants removed from the plates by aspirating. Plates were gently vortexed and 30 μL of live/dead stain (Invitrogen, L34975) in 1×dPBS was added and incubated for 15 minutes in the dark at 4° C. […] 100 μL of flow cytometry buffer was added and plates were centrifuged at 500×g for 4 minutes before supernatants were aspirated from the plates. Wells were resuspended in 200 μL flow cytometry buffer and plates stored at 4° C. before being run on the flow cytometer.
Data was analysed using FlowJo and the compensation matrix applied to all samples. The gates were set using unstained and unstimulated samples.

[4] = molecular target: T3, MTHFD1 recombinant human enzyme (Homo sapiens, UniProt P11586); experiment: MTHFD1 inhibition assay (NAD(P)H-Glo luminescence); conditions: MTHFD1 IC50, recombinant human enzyme 200 nM, NADP, band
T3 sequence (P11586 2-291 limits assumed): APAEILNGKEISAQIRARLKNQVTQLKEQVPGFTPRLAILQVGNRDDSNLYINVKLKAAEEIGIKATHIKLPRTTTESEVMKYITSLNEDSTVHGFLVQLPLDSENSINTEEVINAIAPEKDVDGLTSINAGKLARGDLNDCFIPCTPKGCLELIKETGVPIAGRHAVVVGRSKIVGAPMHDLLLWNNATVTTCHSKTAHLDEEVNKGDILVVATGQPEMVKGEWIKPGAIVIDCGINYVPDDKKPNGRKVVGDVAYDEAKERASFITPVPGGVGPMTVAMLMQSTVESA

murine EAE model = conditions: cited from earlier work

T1 sequence (P43681 29-627 limits assumed): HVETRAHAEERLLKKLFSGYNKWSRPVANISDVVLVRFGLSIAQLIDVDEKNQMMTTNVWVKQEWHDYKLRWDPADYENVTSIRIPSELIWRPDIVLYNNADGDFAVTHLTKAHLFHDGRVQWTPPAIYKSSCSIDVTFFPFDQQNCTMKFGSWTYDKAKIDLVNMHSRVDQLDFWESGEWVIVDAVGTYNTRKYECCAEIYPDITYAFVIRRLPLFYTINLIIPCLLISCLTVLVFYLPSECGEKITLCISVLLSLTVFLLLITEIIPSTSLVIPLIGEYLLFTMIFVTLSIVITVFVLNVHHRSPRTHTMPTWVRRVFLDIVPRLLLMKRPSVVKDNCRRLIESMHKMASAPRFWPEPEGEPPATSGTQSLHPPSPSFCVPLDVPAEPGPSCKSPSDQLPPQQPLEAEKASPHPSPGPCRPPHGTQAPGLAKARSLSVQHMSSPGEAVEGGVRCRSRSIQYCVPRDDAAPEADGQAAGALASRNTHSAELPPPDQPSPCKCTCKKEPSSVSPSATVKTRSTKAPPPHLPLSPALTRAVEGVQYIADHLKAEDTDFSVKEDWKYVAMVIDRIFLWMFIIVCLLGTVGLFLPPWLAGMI
T1 sequence (P17787 26-502): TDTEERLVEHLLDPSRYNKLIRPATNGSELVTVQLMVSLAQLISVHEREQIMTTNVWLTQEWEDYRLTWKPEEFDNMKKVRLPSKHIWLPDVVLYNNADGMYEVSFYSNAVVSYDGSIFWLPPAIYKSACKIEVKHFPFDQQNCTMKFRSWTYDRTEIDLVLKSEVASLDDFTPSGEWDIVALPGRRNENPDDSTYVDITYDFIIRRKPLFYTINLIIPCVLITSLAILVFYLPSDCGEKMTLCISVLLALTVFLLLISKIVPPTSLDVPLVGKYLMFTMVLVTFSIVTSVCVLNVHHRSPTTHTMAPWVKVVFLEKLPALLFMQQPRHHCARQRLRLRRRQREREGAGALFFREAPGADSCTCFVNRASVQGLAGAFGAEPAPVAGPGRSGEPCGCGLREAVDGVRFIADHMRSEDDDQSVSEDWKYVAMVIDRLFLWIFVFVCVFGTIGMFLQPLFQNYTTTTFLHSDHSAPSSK

Cc1c(N2CCN(C)[C@@H](C)C2)ccc2c3c(c(=O)oc12)CN(C(=O)c1ccc(NS(C)(=O)=O)c(OC(F)(F)F)c1)CC3 [DS18561882]
number of Th1 and Th17 cells differentiated in vitro from CD4+ T-cells and expression of the respective Th1 and Th17 cytokines (CD4+ T-cells): greatly decreased
IFNγ and IL-17 (CD4+ T-cells; in vitro): significantly reduced
immune-suppressive Treg cells (CD4+ T-cells; in vitro): increased
tolerability at the therapeutic doses used ([1]; in vivo): well tolerated
ear-swelling ([1]; murine KLH contact sensitization model): could reduce ear-swelling

COC[C@H]1CN(c2ccc3c4c(c(=O)oc3c2C)CN(C(=O)c2ccc(C(=O)NS(=O)(=O)N3CCCC3)c(OC3CCC3)c2F)CC4)CCN1C [Example 54, (R)-2-cyclobutoxy-3-fluoro-4-(8-(3-(methoxymethyl)-4-methylpiperazin-1-yl)-7-methyl-5-oxo-1,3,4,5-tetrahydro-2H-chromeno[3,4-c]pyridine-3-carbonyl)-N-(pyrrolidin-1-ylsulfonyl)benzamide]
IC50 [2]: > 100000 nM
IC50 [3]: 10 to 100 nM
MTHFD1/MTHFD2 IC50 ratio [3]: F (<3)
IC50 (human CD4+ T cells): 10 to 30 nM
IC50 [4]: 10 to 100 nM

COC[C@H]1CN(c2cc(C)c3c4c(c(=O)oc3c2C)CN(C(=O)c2ccc(C(=O)NS(=O)(=O)C3(C)CC3)c(N3CCCC3)c2F)CC4)CCN1C [Example 69, (R)-3-fluoro-4-(8-(3-(methoxymethyl)-4-methylpiperazin-1-yl)-7,10-dimethyl-5-oxo-1,3,4,5-tetrahydro-2H-chromeno[3,4-c]pyridine-3-carbonyl)-N-((1-methylcyclopropyl)sulfonyl)-2-(pyrrolidin-1-yl)benzamide]
IC50 [2]: > 100000 nM
IC50 [3]: 10 to 100 nM
MTHFD1/MTHFD2 IC50 ratio [3]: G (^ 3 to 9.0)
IC50 (human CD4+ T cells): 1 to 10 nM
IC50 [4]: 10 to 100 nM

COC[C@H]1CN(c2cc(C)c3c4c(c(=O)oc3c2C)CN(C(=O)c2cc(N(C)C)c(C(=O)NS(=O)(=O)N3CCCC3)cc2F)CC4)CCN1C [Example 144, (R)-2-(dimethylamino)-5-fluoro-4-(8-(3-(methoxymethyl)-4-methylpiperazin-1-yl)-7,10-dimethyl-5-oxo-1,3,4,5-tetrahydro-2H-chromeno[3,4-c]pyridine-3-carbonyl)-N-(pyrrolidin-1-ylsulfonyl)benzamide]
IC50 [2]: 20000 to 100000 nM
IC50 [3]: 1 to 10 nM
MTHFD1/MTHFD2 IC50 ratio [3]: J (>30)
IC50 (human CD4+ T cells): 1 to 10 nM
IC50 [4]: 100 to 1000 nM

COC[C@H]1CN(c2cc(C)c3c4c(c(=O)oc3c2C)CN(C(=O)c2cc(N(C)C)c(C(=O)NS(=O)(=O)C3(C)CC3)cc2F)CC4)CCN1C [Example 145, (R)-2-(dimethylamino)-5-fluoro-4-(8-(3-(methoxymethyl)-4-methylpiperazin-1-yl)-7,10-dimethyl-5-oxo-1,3,4,5-tetrahydro-2H-chromeno[3,4-c]pyridine-3-carbonyl)-N-((1-methylcyclopropyl)sulfonyl)benzamide]
IC50 [2]: > 100000 nM
IC50 [3]: 1 to 10 nM
MTHFD1/MTHFD2 IC50 ratio [3]: J (>30)
IC50 (human CD4+ T cells): 10 to 30 nM
IC50 [4]: 100 to 1000 nM

CCOc1c(C(=O)NS(=O)(=O)N2CCCC2)ccc(C(=O)N2CCc3c(c(=O)oc4c(C)c(N5CCN(C)[C@@H](COC)C5)cc(C)c34)C2)c1F [Example 147, (R)-2-ethoxy-3-fluoro-4-(8-(3-(methoxymethyl)-4-methylpiperazin-1-yl)-7,10-dimethyl-5-oxo-1,3,4,5-tetrahydro-2H-chromeno[3,4-c]pyridine-3-carbonyl)-N-(pyrrolidin-1-ylsulfonyl)benzamide]
IC50 [2]: 20000 to 100000 nM
IC50 [3]: 1 to 10 nM
MTHFD1/MTHFD2 IC50 ratio [3]: G (^ 3 to 9.0)
IC50 (human CD4+ T cells): 1 to 10 nM
IC50 [4]: 10 to 100 nM

COC[C@H]1CN(c2cc(C)c3c4c(c(=O)oc3c2C)CN(C(=O)c2cc(N(C)C)c(C(=O)NS(=O)(=O)N3CCCC3)cc2Cl)CC4)CCN1C [Example 150, (R)-5-chloro-2-(dimethylamino)-4-(8-(3-(methoxymethyl)-4-methylpiperazin-1-yl)-7,10-dimethyl-5-oxo-1,3,4,5-tetrahydro-2H-chromeno[3,4-c]pyridine-3-carbonyl)-N-(pyrrolidin-1-ylsulfonyl)benzamide]
IC50 [2]: 20000 to 100000 nM
IC50 [3]: 10 to 100 nM
MTHFD1/MTHFD2 IC50 ratio [3]: J (>30)
IC50 (human CD4+ T cells): 10 to 30 nM
IC50 [4]: 1000 to 5000 nM

COC[C@H]1CN(c2cc(C)c3c4c(c(=O)oc3c2C)CN(C(=O)c2ccc(C(=O)NS(=O)(=O)N3CC5CC5C3)c(OC)c2F)CC4)CCN1C (stereo partly drawn) [Example 156, N-((3-azabicyclo[3.1.0]hexan-3-yl)sulfonyl)-3-fluoro-2-methoxy-4-(8-((R)-3-(methoxymethyl)-4-methylpiperazin-1-yl)-7,10-dimethyl-5-oxo-1,3,4,5-tetrahydro-2H-chromeno[3,4-c]pyridine-3-carbonyl)benzamide]
IC50 [2]: 20000 to 100000 nM
IC50 [3]: 10 to 100 nM
IC50 (human CD4+ T cells): 30 to 100 nM
IC50 [4]: 100 to 1000 nM

COC[C@@H]1CN(c2cc(C)c3c4c(c(=O)oc3c2C)CN(C(=O)c2ccc(C(=O)NS(=O)(=O)N3CCCC3)c(OC3CCC3)c2F)CC4)CCN1C [Example 174, (S)-2-cyclobutoxy-3-fluoro-4-(8-(3-(methoxymethyl)-4-methylpiperazin-1-yl)-7,10-dimethyl-5-oxo-1,3,4,5-tetrahydro-2H-chromeno[3,4-c]pyridine-3-carbonyl)-N-(pyrrolidin-1-ylsulfonyl)benzamide]
IC50 [2]: 20000 to 100000 nM
IC50 [3]: 10 to 100 nM
MTHFD1/MTHFD2 IC50 ratio [3]: G (^ 3 to 9.0)
IC50 (human CD4+ T cells): 10 to 30 nM
IC50 [4]: 100 to 1000 nM

COC[C@H]1CN(c2cc(C)c3c4c(c(=O)oc3c2C)CN(C(=O)c2ccc(C(=O)NS(=O)(=O)N3CCCC3)cc2F)CC4)CCN1C [Example 175, (R)-3-fluoro-4-(8-(3-(methoxymethyl)-4-methylpiperazin-1-yl)-7,10-dimethyl-5-oxo-1,3,4,5-tetrahydro-2H-chromeno[3,4-c]pyridine-3-carbonyl)-N-(pyrrolidin-1-ylsulfonyl)benzamide]
IC50 [2]: 20000 to 100000 nM
IC50 [3]: 10 to 100 nM
MTHFD1/MTHFD2 IC50 ratio [3]: J (>30)
IC50 (human CD4+ T cells): 1000 to 5000 nM
IC50 [4]: 1000 to 5000 nM

Nc1nc2c(c(=O)[nH]1)N1C(=O)N(c3ccc(C(=O)N[C@@H](CCC(=O)O)C(=O)O)cc3)CC1CN2 (stereo partly shown) [LY345899]
tolerability at the therapeutic doses used (murine EAE model; in vivo): well tolerated
disease severity and cumulative clinical score compared to vehicle (murine EAE model; mice, oral, day 4 to day 26): significantly reduced
immune cell infiltrate into the spinal cord (murine EAE model; mice, oral, day 4 to day 26): reduced
